System: male and female Sprague–Dawley rats
Assay: 90-day subchronic oral gavage toxicity study
Assay type: in vivo, rat
Set-up: key to NOEL, absolute liver weight increase / LOEL, absolute liver weight increase / NOEL, relative kidney weight increase / LOEL, relative kidney weight increase / NOEL, absolute kidney weight increase / LOEL, absolute kidney weight increase / NOEL, relative liver weight increase / LOEL, relative liver weight increase: NR: no response, no statistically significant dose-dependent changes
Procedure: Subchronic (90-day) studies were performed in accordance with current U.S. EPA’s Toxic Substances Control Act Good Laboratory Practice (GLP) Standards, with the following two general exceptions to the GLP guidelines: Analysis of the dose formulations was conducted according to RTI-approved Standard Operating Procedures, and corn oil (the vehicle) was not characterized (certificate of analysis from the vendor is available in the appendices to the final reports). Male and female Sprague–Dawley rats (five dose levels plus a control, n = 10/sex/dose group, corn oil vehicle dose volume of 3 mL/kg; oral gavage) were used in these studies, and the rats were euthanized on SD 91. The dose levels for PFHI were 0, 12.5, 25, 50, 100, and 200 mg/kg-day. The dose levels for MHFPK were 0, 18.8, 37.5, 75, 150, and 300 mg/kg-day. The dose levels for PFNAC were 0, 0.1, 0.3, 1.0, 3.0, and 10 mg/kg-day for male rats and 0, 0.3, 1.0, 3.0, 10, and 30 mg/kg-day for female rats. For CTFPA, the dose levels were 0, 1.9, 3.8. 7.5, 15, and 30 mg/kg-day for male rats and 0, 6.3, 12.5, 25, 50, and 100 mg/kg-day for female rats. For each PFAS, three batches of dosing solution were prepared. The time between the batch preparation of the dosing solutions ranged between 29 and 39 days. Blood samples were collected from all the rats at termination for serum chemistry, hematology, coagulation, and the analysis of the parent PFAS chemical in the plasma. In vivo data collection and further detail on the endpoints examined postmortem are described below.
The rats were observed twice daily for morbidity and mortality throughout the study period. At least once prior to randomization to test groups and weekly thereafter, the rats were physically examined, and bodyweights were obtained. Feed consumption was quantified weekly starting on SD 1.
Neurotoxicity was evaluated using the functional observational battery (FOB) and measuring locomotor activity (LMA) 2–4 h post dosing on SDs 78–80 and 80–84, respectively. For both the 14- and 90-day studies, an ophthalmologic examination was conducted prior to randomization and near the end of the study, using indirect ophthalmoscopy and slit–lamp biomicroscopy (as needed) after the administration of a mydriatic solution.
Hematology, biochemistry, and coagulation endpoints were measured at the termination of the study. A Siemens Advia 2120i hematology analyzer (Siemens Healthineers, Erlangen, Germany) was used to measure (or calculate) the parameters related to the complete blood count, leukocyte differential count, and reticulocyte count. The hematology parameters are listed and described in Table 2. The prothrombin time […] and activated partial thromboplastin time (APTT) were measured using an Instrumentation Laboratory (Bedford, MA, USA) ACL Elite Pro coagulation analyzer (laser–nephelometric centrifugal method).
At necropsy, the rats were visually examined for external abnormalities and organ weights (absolute and relative to the BW and brain weight), which were recorded (paired organs weighed together). The tissues were preserved in 10% neutral buffered formalin (NBF), except for the ocular tissues, testes, and epididymides, which were preserved in modified Davidson’s fixative and later transferred to 10% NBF. Bone marrow smears were prepared from the femurs, and the slides were air-dried, fixed in methanol, stained, and stored at room temperature for possible future evaluation. The preserved tissues were embedded in paraffin, sectioned, stained with hematoxylin and eosin, and examined by a board-certified veterinary pathologist.
Statistical analysis was performed using Provantis™ Version 10 or greater (Instem LSS, Limited; Stone, Staffordshire, UK). Differences among the treatment groups compared to the control were evaluated using one-way analysis of variance (ANOVA) if the underlying assumptions of a normal distribution (Shapiro–Wilk test) and the homogeneity of the variance (Levene’s test) were satisfied. […]

## CC(=O)C(F)(F)C(F)(F)C(F)(F)F [MHFPK, Methyl heptafluoropropyl ketone]
female, 300 mg/kg-day
  MPV: 9.01 ± 0.50 fL
  PT: 15.33 s
  RBC: 8.159±0.351 M/µL
  Total BW change: 95.70 g
  Total Food Consumed: 1575 g
male
  LOEL, absolute kidney weight increase: NR
  LOEL, absolute liver weight increase: NR
  LOEL, relative kidney weight increase: NR
  LOEL, relative liver weight increase: NR
  NOEL, absolute kidney weight increase: NR
  NOEL, absolute liver weight increase: NR
  NOEL, relative kidney weight increase: NR
  NOEL, relative liver weight increase: NR
male, 18.8 mg/kg-day
  % BW Gain: 103.77%
  % Diff, % BW Gain: 6.06%
  % Diff, Total BW change: 2.29%
  % Diff, Total Food Consumed: -1.53%
  A/G: 0.85±0.03 ratio
  ABNEUT: 2.172±0.976 K/µL
  ABRETi: 179.08±30.61 10^9/L
  ABSEOS: 0.110±0.032 K/µL
  ALB: 3.17 ± 0.18 g/dL
  ALPi: 114.0±26.8 U/L
  APTT: 19.56 s
  BUN: 14.8 ± 1.4 mg/dL
  CHOL: 78.6 ± 12.0 mg/dL
  GLOB: 3.75 ± 0.18 g/dL
  GLUC: 187.8 ± 37.5 mg/dL
  HCT: 49.80±1.91%
  HGB: 15.51 ± 0.80 g/dL
  Kidney Weight: 3.11 g
  Kidney/Body Weight: 0.54%
  Kidney/Brain Weight: 144%
  Liver Weight: 14.06 g
  Liver/Body Weight: 2.41%
  Liver/Brain Weight: 649%
  MPV: 7.85 ± 0.72 fL
  PT: 15.63 s
  RBC: 8.891±0.355 M/µL
  Total BW change: 300.42 g
  Total Food Consumed: 2143 g
male, 37.5 mg/kg-day
  % BW Gain: 101.81%
  % Diff, % BW Gain: 4.06%
  % Diff, Total BW change: 3.12%
  % Diff, Total Food Consumed: -2.01%
  A/G: 0.86±0.07 ratio
  ABNEUT: 1.859±0.620 K/µL
  ABRETi: 192.99±15.30 10^9/L
  ABSEOS: 0.179±0.069 K/µL
  ALB: 3.17 ± 0.15 g/dL
  ALPi: 117.7±20.1 U/L
  APTT: 18.03 s
  BUN: 16.3 ± 1.2 mg/dL
  CHOL: 75.9 ± 12.3 mg/dL
  GLOB: 3.69 ± 0.27 g/dL
  GLUC: 217.1 ± 33.5 mg/dL
  HCT: 49.12±1.32%
  HGB: 15.11 ± 0.46 g/dL
  Kidney Weight: 2.95 g
  Kidney/Body Weight: 0.50%
  Kidney/Brain Weight: 134%
  Liver Weight: 13.83 g
  Liver/Body Weight: 2.34%
  Liver/Brain Weight: 627%
  MPV: 8.18 ± 0.65 fL
  PT: 16.31 s
  RBC: 8.732±0.259 M/µL
  Total BW change: 302.87 g
  Total Food Consumed: 2133 g
male, 75 mg/kg-day
  % BW Gain: 102.83%
  % Diff, % BW Gain: 5.10%
  % Diff, Total BW change: 5.10%
  % Diff, Total Food Consumed: 1.92%
  A/G: 0.86±0.06 ratio
  ABNEUT: 1.731±0.709 K/µL
  ABRETi: 194.58±21.06 10^9/L
  ABSEOS: 0.132±0.036 K/µL
  ALB: 3.18 ± 0.15 g/dL
  ALPi: 121.9±37.5 U/L
  APTT: 17.79 s
  BUN: 15.8 ± 1.8 mg/dL
  CHOL: 67.2 ± 7.1 mg/dL
  GLOB: 3.70 ± 0.19 g/dL
  GLUC: 214.9 ± 18.3 mg/dL
  HCT: 50.90±1.81%
  HGB: 15.70 ± 0.72 g/dL
  Kidney Weight: 3.25 g
  Kidney/Body Weight: 0.54%
  Kidney/Brain Weight: 146%
  Liver Weight: 15.73 g
  Liver/Body Weight: 2.62%
  Liver/Brain Weight: 706%
  MPV: 7.92 ± 0.76 fL
  PT: 16.37 s
  RBC: 9.195±0.417 M/µL
  Total BW change: 308.68 g
  Total Food Consumed: 2218 g
male, 150 mg/kg-day
  % BW Gain: 104.78%
  % Diff, % BW Gain: 7.09%
  % Diff, Total BW change: 6.62%
  % Diff, Total Food Consumed: 3.52%
  A/G: 0.85±0.05 ratio
  ABNEUT: 1.761±0.490 K/µL
  ABRETi: 181.45±26.70 10^9/L
  ABSEOS: 0.155±0.028 K/µL
  ALB: 3.16 ± 0.18 g/dL
  ALPi: 123.9±21.1 U/L
  APTT: 18.41 s
  BUN: 14.6 ± 1.7 mg/dL
  CHOL: 71.1 ± 12.3 mg/dL
  Decrease in the adrenal/BW ratio: 20%
  GLOB: 3.72 ± 0.20 g/dL
  GLUC: 206.8 ± 44.7 mg/dL
  HCT: 50.21±1.86%
  HGB: 15.30 ± 0.78 g/dL
  Kidney Weight: 3.28 g
  Kidney/Body Weight: 0.54%
  Kidney/Brain Weight: 150%
  Liver Weight: 15.50 g
  Liver/Body Weight: 2.54%
  Liver/Brain Weight: 709%
  MPV: 8.53 ± 0.84 fL
  PT: 16.77 s
  RBC: 9.254±0.319 M/µL
  Total BW change: 313.14 g
  Total Food Consumed: 2253 g
male, 300 mg/kg-day
  % BW Gain: 102.36%
  % Diff, % BW Gain: 4.62%
  % Diff, Total BW change: 2.35%
  % Diff, Total Food Consumed: 0.89%
  A/G: 0.88±0.07 ratio
  ABNEUT: 1.674±0.435 K/µL
  ABRETi: 174.98±22.88 10^9/L
  ABSEOS: 0.139±0.055 K/µL
  ALB: 3.24 ± 0.18 g/dL
  ALPi: 123.2±28.8 U/L
  APTT: 17.66 s
  Adrenal/BW ratio: no effect
  BUN: 14.8 ± 3.7 mg/dL
  CHOL: 76.0 ± 22.0 mg/dL
  GLOB: 3.70 ± 0.19 g/dL
  GLUC: 206.4 ± 24.4 mg/dL
  HCT: 49.25±1.52%
  HGB: 15.18 ± 0.47 g/dL
  Kidney Weight: 3.24 g
  Kidney/Body Weight: 0.55%
  Kidney/Brain Weight: 144%
  Liver Weight: 15.58 g
  Liver/Body Weight: 2.61%
  Liver/Brain Weight: 693%
  MPV: 8.58 ± 0.84 fL
  PT: 17.12 s
  RBC: 8.946±0.337 M/µL
  Total BW change: 300.61 g
  Total Food Consumed: 2196 g
